Patent US9572786B2, “Use of capsiate or dihydrocapsidate” (Catholic University Industry Academy Cooperation Foundation, priority 2007, dated 2017)

Experiments:
IL-6 = assay: UV-induced IL-6 mRNA in hairless mouse skin, RT-PCR; format: in vivo; conditions: 200 μL of 1 mM topically 1 hour before UV 5 kJ/m^2 once, 6 hours later
Experimental: In order to investigate the effect of capsiate on the production of IL-6 and TNF-α induced in skin tissue during inflammatory response, the inhibition ability of capsiate against the expression of the pro-inflammatory cytokines was evaluated in animal model as follows. Test groups were as follows: non-treated group—treated with acetone only without UV irradiation; test group A—treated with 200 μL of 1 mM capsiate dissolved in acetone without UV irradiation; UV group—treated with acetone and UV; test group B—treated with 200 μL of 1 mM capsiate dissolved in acetone followed by UV irradiation 1 hour later.
To this end, acetone and capsiate were treated prior to UV irradiation. After treating with UV once at an intensity of 5 kJ/m^2, hairless mouse was euthanized 6 hours later. mRNA was extracted from the mouse tissue obtained by skin biopsy and RT-PCR was carried out as follows. For RNA extraction from the tissue, each mouse tissue obtained by skin biopsy was quickly frozen in liquid nitrogen and ground finely using a mortar. RNA was extracted from the mouse tissue using Trizol (Invitrogen, USA), and PCR (PTC-225 Peltier thermal cycler, MJ Research, USA) was carried out using it as template and using a commercial kit (reverse transcription system, Qiagen, USA). As a result, cDNA was prepared from each group. […]

MMP-9 = assay: Zymography of secreted MMP-9 after UV; format: cell-based, human; conditions: HaCaT culture medium; 10, 25, 50 μM; UV 100 J/m^2; 36 hours
Experimental: Zymography was carried out in order to investigate the decrease of expression and activity of MMP-2 and MMP-9 in protein level.
5×10^5 HaCaT cells were placed on a 60 mm Petri dish and cultured for 24 hours in DMEM containing 10% FBS. Subsequently, the cells were cultured for 24 hours in DMEM containing 1% FBS until starvation. Then, after treating with capsiate at different concentrations (10 μM, 25 μM, 50 μM) for 30 minutes, followed by washing 3 times with PBS, UV was irradiated at an intensity of 100 J/m^2. Immediately after the UV irradiation, the cells were washed again with PBS and further cultured for 36 hours in DMEM containing 1% FBS, which was treated with capsiate at the same concentration as in the pre-treatment. After collecting the culture medium, the activity of MMP-2 and MMP-9 proteins secreted from the cells into the medium was measured. To this end, the mediums obtained from the same number of cells were concentrated to the same volume, and the temperature was maintained at 4° C. in order to avoid the effect on the protein activity.
Thus prepared sample was subjected to electrophoresis at 4° C. using 7.5% acrylamide gel containing gelatin but without sodium dodecyl sulfate (SDS). […]

TNF-α = assay: UV-induced pro-inflammatory cytokine mRNA, RT-PCR: TNF-α; format: cell-based, human; conditions: HaCaT cells; 10, 25, 50 μM; UV 100 J/m^2; 4 hours
Experimental: 1×10^6 HaCaT cells were placed on a 100 mm Petri dish and cultured for 24 hours in DMEM containing 10% FBS. Subsequently, the cells were cultured for 24 hours in DMEM containing 1% FBS until starvation. Then, after treating with capsiate at different concentrations (10 μM, 25 μM, 50 μM) for 30 minutes, followed by washing 3 times with PBS, UV was irradiated at an intensity of 100 J/m^2 to induce the production of cytokines. Immediately after the UV irradiation, the cells were washed again with PBS and further cultured for 4 hours in DMEM containing 1% FBS, which was treated with capsiate at the same concentration as in the pre-treatment.
Then, the degree of mRNA expression for IL-6, IL-8 and TNF-α induced mainly in the skin by the UV irradiation was evaluated by RT-PCR in order to measure the inhibition effect against the pro-inflammatory cytokines.
RNAs were extracted from the cells of each test group using Trizol (Invitrogen, USA) and used as template for PCR (PTC-225 Peltier thermal cycler, MJ Research, USA) to prepare cDNAs for each test group. Using the resultant cDNAs as template, the degree of mRNA expression for IL-6, IL-8 and TNF-α was measured by RT-PCR (Roter Gene 6000 series, Corbett Research, Australia) using commercial IL-6, IL-8 and TNF-α primers. […]

ICAM-1 (CD54) = assay: ICAM-1 expression in mouse skin, Western blotting; format: in vivo; conditions: mouse skin tissue; test group B
Experimental: In order to investigate the effect of capsiate on various intracellular angiogenesis-related expression factors, the inhibition effect of capsiate on angiogenesis factors induced by UV was evaluated using the mouse tissue of Example 5.
Western blotting was carried out in the same manner as Example 6 using the proteins isolated from the mouse skin tissue of each test group in Example 6, in order to investigate the level of expression of ICAM-1 (CD54), which is involved in cell infiltration, cell migration, angiogenesis, etc. in inflammatory response. In order to investigate the level of ICAM-1 expression, mouse anti-ICAM-1 antibody (Santa Cruz, USA) and HRP-conjugated secondary antibody (1:10,000, Zymed) were used.

SMILES: COc1cc(COC(=O)CCCC/C=C/C(C)C)ccc1O [capsiate]
- UV-induced expression of IL-6 (mRNA) in skin tissue (IL-6): decrease
- expression and activity of MMP-9 (zymography) (MMP-9): inhibited expression and activity
- expression of TNF-α (mRNA) increased by UV irradiation (TNF-α): significantly decreases
- level of ICAM-1 expression increased by UV irradiation (ICAM-1 (CD54)): decreased
